From patent publication US12357598B2, “Treatment of neurodevelopmental disorders” (THE REGENTS OF THE UNIVERSITY OF CALIFORNIA, priority 2018, dated 2025)

Test system: ddY mice
Experiment: Oxylipin analysis of plasma and brain regions of juvenile offspring after maternal glyphosate exposure
Assay type: in vivo, mouse
Details: juvenile offspring (P28), maternal 0.095% glyphosate
From the text: Collection of blood and brain samples and oxylipin analysis. Water or 0.095% glyphosate was given to pregnant mice from E5 to P21, as described above. The male offspring were separated from their mothers at weaning (P21). At juvenile (P28) stage, mice were deeply anesthetized with isoflurane and plasma was collected. Subsequently, brains were removed from the skulls. For Western blot analysis, brain regions such as prefrontal cortex (PFC), hippocampus, and striatum, were dissected from brain on ice. The samples were stored at −80° C. before assay. For oxylipin analysis, plasma was collected after isoflurane anesthesia at juvenile (P28) stage. Subsequently, PFC, hippocampus, and striatum were dissected from brain on ice, and the samples were stored at −80° C. before assay. Measurement of eicosanoids in the plasma and brain regions was performed at UC Davis using the previous method (4).

## O=C(O)CNCP(=O)(O)O [glyphosate]
PFC
  4,5-DiHDPE level: 1.083 ± 0.242 pmol/g
  5(6)-EpETrE level: 3862.881 ± 1353.639 pmol/g
  5,6-DiHETrE level: 0.699 ± 0.113 pmol/g
  5-HEPE level: 1.760 ± 0.234 pmol/g
  5-HETE level: 18.560 ± 1.797 pmol/g
  5-oxo-ETE level: 142.497 ± 16.459 pmol/g
  6-keto-PGF1a level: 88.691 ± 7.208 pmol/g
  7(8)-EpDPE level: 3640.707 ± 1175.101 pmol/g
  8(9)-EpETE level: 1.992 ± 0.638 pmol/g
  8(9)-EpETrE alt level: 447.323 ± 148.765 pmol/g
  8(9)-EpETrE level: 12713.4 ± 6124.0 pmol/g
  8-HEPE level: 0.959 ± 0.080 pmol/g
  8-HETE level: 7.904 ± 0.840 pmol/g
  9(10)-EpOME level: 57.775 ± 18.915 pmol/g
  9,10,13-TriHOME level: 31.772 ± 4.440 pmol/g
  9,12,13-TriHOME level: 52.749 ± 6.979 pmol/g
  9-HETE level: 1.826 ± 0.587 pmol/g
  9-HODE level: 32.184 ± 2.752 pmol/g
  10(11)-EpDPE level: 270.138 ± 86.641 pmol/g
  11(12)-EpETE level: 2.775 ± 0.733 pmol/g
  11(12)-EpETrE level: 1128.684 ± 354.042 pmol/g
  11,12-,15-TriHETrE level: 27.925 ± 2.262 pmol/g
  11,12-DiHETrE level: 1.383 ± 0.124 pmol/g
  11-HETE level: 275.604 ± 19.707 pmol/g
  12(13)-EpOME level: 67.240 ± 21.629 pmol/g
  12-HEPE level: 6.850 ± 1.105 pmol/g
  12-HETE level: 448.365 ± 69.003 pmol/g
  12-oxo-ETE level: 2140.116 ± 142.081 pmol/g
  13(14)-EpDPE level: 190.175 ± 59.161 pmol/g
  13,14-DiHDPE level: 0.851 ± 0.076 pmol/g
  13-HODE level: 45.239 ± 3.261 pmol/g
  14(15)-EpETE level: 1.633 ± 0.487 pmol/g
  14(15)-EpETrE level: 1037.632 ± 291.994 pmol/g
  14,15-DiHETrE level: 2.498 ± 0.243 pmol/g
  15(16)-EpODE level: 0.500 ± 0.121 pmol/g
  15(S)-HETrE level: 11.900 ± 1.029 pmol/g
  15-HETE level: 313.016 ± 24.240 pmol/g
  15-oxo-ETE level: 10.104 ± 1.289 pmol/g
  16(17)-EpDPE level: 195.454 ± 58.684 pmol/g
  16,17-DiHDPE level: 1.154 ± 0.110 pmol/g
  17(18)-EpETE level: 3.729 ± 1.017 pmol/g
  17-HDoHE level: 6200.527 ± 739.211 pmol/g
  19(20)-EpDPE level: 353.450 ± 99.156 pmol/g
  19,20-DiHDPE level: 7.491 ± 0.703 pmol/g
  EKODE level: 12.663 ± 1.143 pmol/g
  LTB3 level: 53.423 ± 26.072 pmol/g
  PGD2 level: 439.532 ± 37.011 pmol/g
  PGE2 level: 137.389 ± 14.051 pmol/g
  PGF2a level: 431.431 ± 34.510 pmol/g
  TXB2 level: 246.160 ± 16.777 pmol/g
hippocampus
  4,5-DiHDPE level: 1.572 ± 0.704 pmol/mL
  5(6)-EpETrE level: 917.184 ± 134.826 pmol/mL
  5,6-DiHETrE level: 0.470 ± 0.051 pmol/mL
  5-HEPE level: 2.917 ± 0.708 pmol/mL
  5-HETE level: 16.705 ± 0.992 pmol/mL
  5-oxo-ETE level: 94.461 ± 9.488 pmol/mL
  6-keto-PGF1a level: 113.103 ± 15.509 pmol/mL
  7(8)-EpDPE level: 460.824 ± 81.977 pmol/mL
  8(9)-EpETE level: 3.435 ± 0.784 pmol/mL
  8(9)-EpETrE alt level: 89.694 ± 12.609 pmol/mL
  8(9)-EpETrE level: 971.2 ± 484.7 pmol/mL
  8-HEPE level: 1.415 ± 0.182 pmol/mL
  8-HETE level: 5.383 ± 0.796 pmol/mL
  9(10)-EpOME level: 9.131 ± 1.032 pmol/mL
  9,10,13-TriHOME level: 29.123 ± 5.450 pmol/mL
  9,12,13-TriHOME level: 51.599 ± 10.194 pmol/mL
  9-HETE level: 2.073 ± 0.532 pmol/mL
  9-HODE level: 31.282 ± 6.681 pmol/mL
  10(11)-EpDPE level: 40.179 ± 5.185 pmol/mL
  11(12)-EpETE level: 1.254 ± 0.537 pmol/mL
  11(12)-EpETrE level: 254.371 ± 33.701 pmol/mL
  11,12-,15-TriHETrE level: 20.278 ± 1.789 pmol/mL
  11,12-DiHETrE level: 0.914 ± 0.053 pmol/mL
  11-HETE level: 261.315 ± 27.149 pmol/mL
  12(13)-EpOME level: 11.355 ± 1.474 pmol/mL
  12-HEPE level: 9.094 ± 3.984 pmol/mL
  12-HETE level: 131.250 ± 40.185 pmol/mL
  12-oxo-ETE level: 1245.436 ± 206.406 pmol/mL
  13(14)-EpDPE level: 27.748 ± 3.955 pmol/mL
  13,14-DiHDPE level: 0.516 ± 0.089 pmol/mL
  13-HODE level: 54.648 ± 8.929 pmol/mL
  14(15)-EpETE level: 0.712 ± 0.184 pmol/mL
  14(15)-EpETrE level: 241.703 ± 26.592 pmol/mL
  14,15-DiHETrE level: 1.183 ± 0.095 pmol/mL
  15(16)-EpODE level: 2.750 ± 0.907 pmol/mL
  15(S)-HETrE level: 7.994 ± 1.430 pmol/mL
  15-HETE level: 263.402 ± 29.963 pmol/mL
  15-oxo-ETE level: 8.232 ± 0.652 pmol/mL
  16(17)-EpDPE level: 29.112 ± 4.286 pmol/mL
  16,17-DiHDPE level: 0.675 ± 0.093 pmol/mL
  17(18)-EpETE level: 1.592 ± 0.499 pmol/mL
  17-HDoHE level: 5997.276 ± 762.508 pmol/mL
  19(20)-EpDPE level: 55.856 ± 8.656 pmol/mL
  19,20-DiHDPE level: 5.359 ± 0.322 pmol/mL
  EKODE level: 11.362 ± 1.014 pmol/mL
  LTB3 level: 13.669 pmol/mL
  PGD2 level: 349.020 ± 34.288 pmol/mL
  PGE2 level: 68.947 ± 7.203 pmol/mL
  PGF2a level: 314.752 ± 30.178 pmol/mL
  TXB2 level: 198.203 ± 24.835 pmol/mL
